Results published in publication PMC4201456, “Cytoxicity and Apoptotic Mechanism of Ruthenium(II) Amino Acid Complexes in Sarcoma-180 Tumor Cells” (PLoS ONE, 2014).

Legend:
L929 normal cells = test: MTT cell viability assay, L929 normal cells; format: cell-based, murine; conditions: L929 normal cell line, 48 h
Protocol: (§1) The murine sarcoma-180 tumor cells (S180) (ATCC# TIB-66) and normal murine fibroblast cells (L-929) (ATCC# CCL-1) were cultured in suspension in RPMI 1640 and DMEM media (Sigma Chemical Co., MO), respectively, supplemented with 10% fetal calf serum, 100 µg/mL penicillin, and 100 µg/mL streptomycin. The cultures were incubated in a humidified incubator (Thermo Scientific) at 37°C with 5% CO2.
(§2) The cytotoxic effects of the amino acid ruthenium complexes were evaluated using an MTT assay with S180 tumor cells and L929 normal cells as described previously. Briefly, 1.0×10^5 S180 cells and 2.0×10^4 L929 cells were plated in 96-well tissue culture plates and treated with different concentrations of amino acid ruthenium complexes (0.2–200 µM) for 48 h. After treatment, 10 µL of MTT (5 mg mL^−1) was added to each well, and the plates were incubated at 37°C for an additional 3 h. The purple formazan crystals were dissolved in 50 µL of SDS, and the absorbance was determined at 545 nm using a Stat Fax 2100 microplate reader (Awareness Technology, Palm City, FL, USA). The cell viability was calculated as follows: viability (%) = (absorbance of the treated wells)/(absorbance of the control wells) ×100. The IC50 (complex concentration (µM) that results in a 50% reduction in cellular viability) was obtained from dose-response curves using GraphPad Prism 4.02 for Windows (GraphPad Software, San Diego, CA, USA).

S180 tumor cells = test: MTT cell viability assay, S180 tumor cells; format: cell-based, murine; conditions: S180 tumor cell line, 48 h
Protocol: as §1, §2

S180 cells = tested on: S180 cells; design: method as in earlier work; conditions: previous studies; cited from earlier work
pBR322 plasmid DNA = tested on: pBR322 plasmid DNA; design: method as in PMID 21875763; conditions: previous study; cited from earlier work

SMILES | IC50 (S180 tumor cells) [µM] | IC50 (L929 normal cells) [µM] | numbers of Annexin V-positive S180 cells (S180 cells) | effect on plasmid DNA (AFM images) (pBR322 plasmid DNA)
N.N.N.N.[Cl-].[Cl][Ru+][Cl] [cis-[RuCl2(NH3)4]Cl] | – | – | increased the numbers of Annexin V-positive S180 cells | –
F[P-](F)(F)(F)(F)F.O=C1[O][Ru-4]23([n+]4ccccc41)([n+]1ccccc1-c1cccc[n+]12)[P+](c1ccccc1)(c1ccccc1)CCCC[P+]3(c1ccccc1)c1ccccc1 [[Ru(pic)(dppb(bipy)]PF6] | – | – | – | strong aggregation of plasmid DNA
N.N.[Cl][Pt][Cl] [Cisplatin, cisplatin, reference compound] | 64.83 ± 0.17 | 29.1 ± 1.88 | – | –

Further lines, with some results ahead:

IC50 (S180 tumor cells) [µM] | SMILES | IC50 (L929 normal cells) [µM] | numbers of Annexin V-positive S180 cells (S180 cells) | effect on plasmid DNA (AFM images) (pBR322 plasmid DNA)
22.5 ± 3.4 | CSCC[C@H](N)C(=O)[O-].F[P-](F)(F)(F)(F)F.[Ru+2].c1ccc(-c2ccccn2)nc1.c1ccc(P(CCCCP(c2ccccc2)c2ccccc2)c2ccccc2)cc1 [Complex 1, [Ru(met)(bipy)(dppb)]PF6] | 27.4 ± 3.32 | – | –
42.2 ± 3.98 | F[P-](F)(F)(F)(F)F.F[P-](F)(F)(F)(F)F.N[C@@H](CC(=O)O)C(=O)O.[Ru+2].c1ccc(-c2ccccn2)nc1.c1ccc(P(CCCCP(c2ccccc2)c2ccccc2)c2ccccc2)cc1 [Complex 4, [Ru(aspac)(bipy)(dppb)](PF6)2] | 107 ± 8.98 | – | –
38.2 ± 7 | CC(C)C[C@H](N)C(=O)[O-].F[P-](F)(F)(F)(F)F.[Ru+2].c1ccc(-c2ccccn2)nc1.c1ccc(P(CCCCP(c2ccccc2)c2ccccc2)c2ccccc2)cc1 [Complex 3, [Ru(leu)(bipy)(dppb)]PF6] | 47.1 ± 5.94 | – | –
50.2 ± 1.03 | C[C@H](N)C(=O)[O-].F[P-](F)(F)(F)(F)F.[Ru+2].c1ccc(-c2ccccn2)nc1.c1ccc(P(CCCCP(c2ccccc2)c2ccccc2)c2ccccc2)cc1 [Complex 5, [Ru(ala)(bipy)(dppb)]PF6] | 97.8 ± 8.99 | – | –
